Reference: patent US9289446B2, “Myocardial perfusion imaging methods and compositions” (GILEAD SCIENCES, INC., priority 2002, dated 2016)

Experiments:
[1] = system: heart rate (HR) and blood pressure (BP); assay: Example 5: heart rate, blood pressure and plasma catecholamines after i.v. bolus in awake rats (sympathoexcitation); assay type: in vivo
Protocol: The present study was carried out to determine whether CVT-3146, a selective A2A adenosine receptor agonist, causes sympathoexcitation.
CVT (0.31 μg/kg-50 μg/kg) was given as a rapid i.v. bolus to awake rats and heart rate (HR) and blood pressure (BP) were monitored. CVT-3146 caused an increase in BP and systolic pressure (SP) at lower doses while at higher doses there was a decrease in BP and SP. […] The increase in HR was evident at the lowest dose of CVT at which there was no appreciable decrease in BP. ZM241385 (30 μg/kg, N=5), an A2A receptor antagonist, attenuated the decrease in BP (CVT-3146: 14±3%, ZM: 1±1%) and the increase in HR (CVT: 27±3%, ZM: 18±3%) caused by CVT-3146. Pretreatment with metoprolol (MET, 1 mg/kg, n=5), a beta-blocker, attenuated the increase in HR (CVT: 27±3%, MET: 15±2%), but had no effect on hypotension caused by CVT-3146. In the presence of hexamethonium (HEX, 10 mg/kg, n=5), a ganglionic blocker, the tachycardia was prevented (CVT: 27±3%, HEX: −1±2%), but BP was further reduced (CVT: −11±2%, HEX: −49±5%).

[2] = Example 3: maximum tolerated dose and safety of single IV bolus CVT-3146 in healthy volunteers, supine and standing; assay type: in vivo; conditions: 30 μg/kg supine, 4 subjects per group
Protocol: (§1) This Example is a study performed to evaluate (1) the maximum tolerated dose of CVT-3146 and (2) the pharmacokinetic profile of CVT-3146 in healthy volunteers, after a single IV bolus dose.
(§2) The study was performed using thirty-six healthy, non-smoking male subjects between the ages of 18 and 59 and within 15% of ideal body weight.
The study was performed in phase 1, single center, double-blind, randomized, placebo-controlled, crossover, ascending dose study. Randomization was to CVT-3146 or placebo, in both supine and standing positions.
(§3) CVT-3146 was administered as an IV bolus (20, seconds) in ascending doses of […], 10, 20, and 30 μg/kg.
Subjects received either CVT-3146 of placebo on Day 1 supine, then crossover treatment on Day 2 supine. On Day 3, subjects received CVT-3146 or placebo standing, then crossover treatment on Day 4 standing.
Patient safety was monitored by ECG, laboratory assessments, and collection of vital signs and adverse events.
Pharmacodynamics: • The study evaluated the relationship of changes in heart rate to dose in both standing and supine positions and plasma concentration in the supine position. Results

[3] = system: coronary blood flow velocity (CBFv); assay: Example 1: open label study of CVT-3146 IV bolus on CBFv (Doppler flow wire) in patients undergoing coronary catheterization; assay type: in vivo, humans
Protocol: The purpose of this open label study was to determine the magnitude and duration of effect of CVT-3146 (10-500 μg) on CBFv in humans.
METHODS: Patients undergoing a clinically indicated coronary catheterization with no more than a 70% stenosis in any coronary artery and no more than a 50% stenosis of the study vessel had CBFv determined by Doppler flow wire. Study subject were selected after measuring baseline and peak CBFv after an intracoronary (IC) injection of 18 μg of Ado. Twenty-three patients, who were identified as meeting the study criteria of having a peak to baseline CBFv ratio of ≧2.5 in response to Adenosine, received a rapid (<10 sec) peripheral IV bolus of CVT-3146; Doppler signals were stable and interpretable over the time-course of the increase in CBFv in 17 patients.

[4] = system: blood flow in coronary, mesenteric, hind limb and renal vascular beds; assay: Example 8: vasodilator effects in different vascular beds (CBF, MBF, LBF, RBF) in awake dogs; assay type: in vivo; conditions: n=6, FIG. 18
Protocol: Example 8 employed a pharmaceutical composition consisting of an aqueous composition of 100 micrograms/mL CVT-3146 in 15% (w:v) propylene glycol and 100 mM phosphate buffer at pH 7 with 0.1% EDTA. The formulation was stored in type I glass vials at 5 mL per vial.
In this study the vasodilator effects of CVT-3146 were compared to those of ADO in different vascular beds in awake dogs. Dogs were chronically instrumented for measurements of the blood flow in coronary (CBF), mesenteric (MBF), hind limb (LBF), and renal (RBF) vascular beds, and hemodynamics.

[5] = Example 3: pharmacokinetic profile of CVT-3146 in healthy volunteers after single IV bolus (three-compartment model); assay type: in vivo; conditions: male, human, plasma, Total (doses 1-30 μg/kg), N=22, mean, read-out: VSS (volume of distribution at steady state)
Protocol: as §1, §2, §3
Pharmacokinetics: • Plasma samples were drawn during supine phase (Days 1 and 2) at 0, 1, 2, 3, 4, 5, 7, 10, 15, 20, 30, 45 minutes after dosing and at 1, 1.5, 2, 4, 6, 8, 12 and 24 hours after dosing. Urine was collected for 24 hours for CVT-3146 excretion.
A three-compartment open model was fit to the data using observed Tmax (1-4 minutes) as the duration of a zero-order infusion. Reliable parameter estimates were obtained for dose of 1-30 μg/kg. Parameters are summarized in the following (Table 2): […]

[6] = system: blood flow velocity in LCX, BA, FA and PA; assay: Example 4: blood flow velocity (APV) in various vascular beds in the anesthetized dog; assay type: in vivo; conditions: 1.0 μg/kg iv bolus
Source text: CVT-3146 is a novel selective A2A adenosine receptor agonist being developed as a pharmacologic stressor for radionuclide myocardial perfusion imaging. […] The goal of this study was to determine the differential effects of CVT-3146 on blood flow velocity in various vascular beds.
The effects of CVT-3146 were quantified as the average peak blood flow velocity (APV) using intravascular Doppler transducer tipped catheter. Heart rate (HR) and systemic arterial blood pressure (BP) were also monitored.

In the case of `CNC(=O)c1cnn(-c2nc(N)c3ncn([C@@H]4O[C@H](CO)[C@@H](O)[C@H]4O)c3n2)c1` [CVT-3146, (1-{9-[(4S,2R,3R,5R)-3,4-dihydroxy-5-(hydroxymethyl)oxolan-2-yl]-6-aminopurin-2-yl}pyrazol-4-yl)-N-methylcarboxamide], the “effect on HR over dose” value ([1]; 0.31 μg/kg-50 μg/kg rapid i.v. bolus) is reported as “dose-dependent increase in HR”, the “decrease in BP caused by CVT-3146” value ([1]; CVT-3146 alone (comparison with ZM241385), awake rats) is reported as 14±3% and the “change in BP caused by CVT-3146” value ([1]; CVT-3146 alone (comparison with hexamethonium)) is reported as −11±2%. The “increase in HR caused by CVT-3146” value ([1]; CVT-3146 alone, awake rats) was 27±3%, the “Dizziness labeled as severe, number of subjects with AE” value [2] was 0 and the “Palpitation labeled as severe, number of subjects with AE” value [2] was 2. For the same molecule, the “Syncope labeled as severe, number of subjects with AE” value [2] was 0, the “maximal decrease in systolic blood pressure (BP)” value ([3]; 500 μg (n=3)) was 8.7±7.6 and the “maximal increase in heart rate (HR)” value ([3]; 500 μg (n=3)) was 18.7±4.0. The “adverse events (AEs)” value ([3]; 500 μg dose, 3 patients) was “No AEs were noted”, the “adverse events (AEs)” value ([3]; 10-500 μg IV bolus) was “infrequent and included nausea, flushing, and headache; these were mild and self-limited” and the “time at which increase in CBFv was near peak, post onset of bolus” value ([3]; IV bolus, humans) was 30 to 40 s. The “increase in hind limb blood flow (LBF) compared to ADO” value [4] was “smaller increase in LBF than ADO”, the Vd [5] was 75.5 L and the “decrease in BP” value [6] was 12 mmHg. For the same molecule, the “time for effect on blood flow velocity to dissipate” value [6] was “less than ten” and the “transient increase in HR” value [6] was 16 bpm.
